ChEMBL document CHEMBL4002617, “Antifungal activity of substituted aurones” (Bioorg Med Chem Lett, 2017)
Active and inactive are the calls of the source. The rule behind the calls is not given here.

Experiments:
Assay type in all cases: functional
Candida albicans [1] = test: Antifungal activity against Candida albicans ATCC 90028 at 100 uM after 24 hrs by PrestoBlue dye based microdilution broth assay relative to control; settings: ATCC 90028, 24 h
Candida albicans [2] = test: Antifungal activity against Candida albicans ATCC 90028 after 24 hrs by PrestoBlue dye based microdilution broth assay; settings: ATCC 90028, 24 h
Nakaseomyces glabratus = test: Antifungal activity against Candida glabrata ATCC 66032 after 24 hrs by PrestoBlue dye based microdilution broth assay; settings: ATCC 66032, 24 h
Candida tropicalis = test: Antifungal activity against Candida tropicalis ATCC 750 after 24 hrs by PrestoBlue dye based microdilution broth assay; settings: ATCC 750, 24 h
Candida albicans [3] = test: Antibiofilm activity against Candida albicans ATCC 90028 intermediate phase biofilm at antifungal IC50 to IC99 after 24 hrs by calcofluor white dye based fluorescent microscopic analysis
Candida albicans [4] = test: Antibiofilm activity against Candida albicans ATCC 90028 intermediate phase biofilm at 2 ug/ml after 24 hrs by calcofluor white dye based fluorescent microscopic analysis
Candida albicans [5] = test: Antibiofilm activity against Candida albicans ATCC 90028 intermediate phase biofilm at 16 ug/ml after 24 hrs by calcofluor white dye based fluorescent microscopic analysis
Candida albicans [6] = test: Antibiofilm activity against Candida albicans ATCC 90028 intermediate phase biofilm at 100 ug/ml after 24 hrs by calcofluor white dye based fluorescent microscopic analysis

| Compound | inhibition at 100 µM (Candida albicans [1]) [%] | further results |
| --- | --- | --- |
| O=C1/C(=C/c2ncc[nH]2)Oc2ccccc21 | 43.9 |  |
| COc1ccc(/C=C2\Oc3cc(O)ccc3C2=O)cc1O | 40 |  |
| COc1cc(/C=C2\Oc3ccccc3C2=O)ccc1O | 11.2 |  |
| O=C1/C(=C/c2ccccn2)Oc2ccccc21 |  | IC50 (Candida albicans [2]): 18 µM; IC50 (Nakaseomyces glabratus): 10 µM; IC50 (Candida tropicalis): 12 µM; Activity (Candida albicans [3]): inactive |
| COc1ccc(/C=C2\Oc3ccccc3C2=O)cc1OC [3',4'-DIMETHOXY-AURONE] | 14.2 |  |
| C[C@@H]1[C@H](O)[C@@H](C)/C=C/C=C/C=C/C=C/C=C/C=C/C=C/[C@H](O[C@@H]2O[C@H](C)[C@@H](O)[C@H](N)[C@@H]2O)C[C@@H]2O[C@](O)(C[C@@H](O)C[C@@H](O)[C@H](O)CC[C@@H](O)C[C@@H](O)CC(=O)O[C@H]1C)C[C@H](O)[C@H]2C(=O)O |  | Activity (Candida albicans [4]): Active |
| O=C1/C(=C/c2ccc[nH]2)Oc2c1ccc(O)c2O | 27.5 |  |
| O=C1/C(=C/c2ccccc2O)Oc2ccccc21 | 1 |  |
| COc1cccc(/C=C2\Oc3ccccc3C2=O)c1O | 16.7 |  |
| COc1ccc(/C=C2\Oc3c(ccc(O)c3O)C2=O)cc1O | 99.4 | IC50 (Candida albicans [2]): 16 µM; IC99 (Candida albicans [2]): 100 µM; IC50 (Nakaseomyces glabratus): 11 µM; IC50 (Candida tropicalis): 10 µM; Activity (Candida albicans [5]): inactive; Activity (Candida albicans [6]): Active |
| COc1cc(Br)c(/C=C2\Oc3ccccc3C2=O)cc1OC | 12.5 |  |
| O=C1/C(=C/c2ccc[nH]2)Oc2ccccc21 | 78.8 |  |
| O=C1/C(=C/c2cccs2)Oc2c1ccc(O)c2O | 26 |  |
| COc1ccc(/C=C2\Oc3ccccc3C2=O)cc1O | 45.6 |  |
